# Assay results published in US9067894B1, “Compound, composition, and method of activating GIRK potassium channel and use of same for treating conditions of interest” (Vanderbilt University, priority 2013, dated 2015).
# Entries after “also recorded” stand apart in the source; their conditions may differ.
# What was measured:
# [1] = biological target: T1, GABAA receptors (α1, β2, γ2 subunit combination) (Homo sapiens, UniProt P14867+P18507+P47870); experiment: Whole-cell voltage-clamp on GABAA receptors transiently transfected in HEK-293 cells; type: cell-based; conditions: activation or potentiation of GABA-evoked currents
# T1 construct: expressed in transfected cells; host or cells: HEK-293 (transient)
# T1 sequence (P14867 28-456): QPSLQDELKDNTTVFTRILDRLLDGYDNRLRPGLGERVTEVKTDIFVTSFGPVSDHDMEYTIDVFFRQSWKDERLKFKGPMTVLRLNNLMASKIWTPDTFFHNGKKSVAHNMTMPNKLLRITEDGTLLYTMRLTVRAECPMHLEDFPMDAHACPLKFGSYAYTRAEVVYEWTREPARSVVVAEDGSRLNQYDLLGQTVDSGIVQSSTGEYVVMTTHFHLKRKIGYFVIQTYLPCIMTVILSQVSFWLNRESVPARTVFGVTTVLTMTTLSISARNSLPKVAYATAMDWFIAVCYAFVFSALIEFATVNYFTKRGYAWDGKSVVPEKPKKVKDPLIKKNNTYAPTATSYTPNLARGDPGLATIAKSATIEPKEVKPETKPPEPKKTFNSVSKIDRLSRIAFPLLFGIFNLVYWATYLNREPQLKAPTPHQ
# T1 sequence (P47870 25-512 limits assumed): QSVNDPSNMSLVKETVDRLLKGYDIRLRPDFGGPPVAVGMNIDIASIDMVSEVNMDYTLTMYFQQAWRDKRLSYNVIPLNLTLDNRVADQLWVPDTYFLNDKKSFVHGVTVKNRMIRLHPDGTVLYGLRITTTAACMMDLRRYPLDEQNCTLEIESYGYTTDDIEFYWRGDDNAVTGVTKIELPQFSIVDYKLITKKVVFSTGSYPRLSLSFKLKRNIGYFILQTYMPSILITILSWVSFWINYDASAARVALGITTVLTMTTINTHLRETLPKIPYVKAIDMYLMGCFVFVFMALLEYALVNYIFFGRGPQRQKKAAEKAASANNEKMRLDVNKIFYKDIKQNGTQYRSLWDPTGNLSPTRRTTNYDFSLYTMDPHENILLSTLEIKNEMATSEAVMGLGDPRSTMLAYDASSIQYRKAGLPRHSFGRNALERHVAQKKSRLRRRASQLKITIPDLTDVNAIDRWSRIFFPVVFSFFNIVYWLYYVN
# T1 sequence (P18507 40-475): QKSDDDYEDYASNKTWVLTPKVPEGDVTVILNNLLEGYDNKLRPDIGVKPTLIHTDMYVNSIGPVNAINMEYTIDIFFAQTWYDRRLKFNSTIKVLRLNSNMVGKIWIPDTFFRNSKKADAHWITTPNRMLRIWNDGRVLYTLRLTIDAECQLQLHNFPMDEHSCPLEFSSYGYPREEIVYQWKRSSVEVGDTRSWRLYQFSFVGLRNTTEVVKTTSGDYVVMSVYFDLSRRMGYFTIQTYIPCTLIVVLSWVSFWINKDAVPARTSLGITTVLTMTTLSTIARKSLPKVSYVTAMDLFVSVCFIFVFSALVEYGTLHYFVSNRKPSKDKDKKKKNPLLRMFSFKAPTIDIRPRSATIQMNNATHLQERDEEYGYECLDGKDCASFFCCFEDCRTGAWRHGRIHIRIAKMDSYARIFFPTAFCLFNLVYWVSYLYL
# Experimental: A single-cell suspension of HEK-293 cells stably transfected with the appropriate ion channels were plated into TC-treated 35 mm polystyrene dishes at ˜15% confluence and incubated overnight in a 5% CO2 cell culture incubator at 37° C. Whole-cell patch-clamp recordings were performed 24-72 h after plating. Borosilicate glass electrodes ([…] resistance) were filled with Intracellular Solution (130 mM KCl, 20 mM NaCl, 5 mM EGTA, 5.46 mM MgCl2, and 10 mM HEPES, pH 7.4). Whole cell currents were recorded in 20K extracellular solution at −70 mV using a Pico 1 amplifier (Tecella, Foothill Ranch, Calif.) controlled by WINWCP 4.X (University of Strathclyde, Glasgow, Scotland, UK). Signals were compensated for electrode capacitance, cellular capacitance and series resistance. Signals were filtered at 1 kHz, and digitized at 5 kHz. Solutions were applied to the cell with a Valvelink 8.2 (Automate Scientific, Berkeley, Calif.) rapid, valve-controlled perfusion system with in-house-made local superfusion manifold. […] One day after transfection, cells were plate into 35 mm polystyrene dishes, incubated and recorded as described above. […]
# (§1) Voltage-clamp data were analyzed by converting current amplitudes to current density by dividing by each cell's membrane capacitance estimated from capacitance compensation. […]
# GIRK1/2 = biological target: T2, GIRK1/2 (Homo sapiens, UniProt P48051+P48549); experiment: Whole-cell voltage-clamp, GIRK1/2-expressing HEK-293 cells; type: cell-based; design: host or cells: HEK-293
# T2 sequence (P48549 1-501): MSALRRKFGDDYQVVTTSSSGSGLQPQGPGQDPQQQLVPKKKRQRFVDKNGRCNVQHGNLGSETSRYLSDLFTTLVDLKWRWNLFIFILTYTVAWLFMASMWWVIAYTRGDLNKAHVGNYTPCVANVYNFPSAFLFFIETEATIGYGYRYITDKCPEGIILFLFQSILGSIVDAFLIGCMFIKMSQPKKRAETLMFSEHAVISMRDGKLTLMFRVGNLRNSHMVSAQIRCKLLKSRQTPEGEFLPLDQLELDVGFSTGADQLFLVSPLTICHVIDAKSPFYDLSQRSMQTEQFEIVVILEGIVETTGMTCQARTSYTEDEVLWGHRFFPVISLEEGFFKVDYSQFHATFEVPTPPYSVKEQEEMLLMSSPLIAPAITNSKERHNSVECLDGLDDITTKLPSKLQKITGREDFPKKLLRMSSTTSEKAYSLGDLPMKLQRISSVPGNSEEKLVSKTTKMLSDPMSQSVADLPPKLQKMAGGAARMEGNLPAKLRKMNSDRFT
# T2 sequence (P48051 1-423): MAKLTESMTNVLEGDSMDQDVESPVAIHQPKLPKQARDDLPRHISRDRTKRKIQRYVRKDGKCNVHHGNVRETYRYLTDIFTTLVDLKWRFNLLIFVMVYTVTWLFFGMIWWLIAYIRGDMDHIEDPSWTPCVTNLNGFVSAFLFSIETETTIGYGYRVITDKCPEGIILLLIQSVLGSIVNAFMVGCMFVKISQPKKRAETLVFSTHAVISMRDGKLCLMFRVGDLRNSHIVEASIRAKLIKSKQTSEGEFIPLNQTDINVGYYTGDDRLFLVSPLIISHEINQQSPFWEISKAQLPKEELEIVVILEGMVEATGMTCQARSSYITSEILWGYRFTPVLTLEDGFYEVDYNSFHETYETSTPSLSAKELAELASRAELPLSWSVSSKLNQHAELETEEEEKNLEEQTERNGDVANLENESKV
# Excerpt: Cell Line Construction and Cell Culture. HEK-293 cells co-expressing human GIRK1/2 and rat mGlu8 were generated as previously described (Niswender et al., 2008). A HEK-293 cell line (ATCC, Manassas, Va.) expressing human GIRK1 and human GIRK2 was constructed by transfecting HEK-293 cells with GIRK1 and GIRK2 (Origene, Rockville, Md.) cloned into the pBudCE4.1 vector (Life Technologies, Carlsbad, Calif.) using FuGene 6 (Promega, Madison, Wis.) transfection reagent. Unless otherwise noted, other ion channel-expressing cells were prepared by transfecting HEK-293 cells with individual or combinations of subunits: GIRK1, pCMV6-A-BSD; GIRK2, pCMV6-A-puro; GIRK3, pCMV6-A-hygro; GIRK4, pCMV6-A-AC; Kv7.4, pIRESneo3. The Kir2.1 and hERG-expressing cell lines were made by transfecting T-REx-293 cells (Life Technologies, Carlsbad, Calif.) with Kir2.1 and Kv11.1, respectively, cloned into pcDNA5TO. Monoclonal cell lines were produced by limiting-dilution cloning of antibiotic-resistant cells and functional selection using the thallium flux assay described below. Unless otherwise noted, cells were maintained in Minimal Essential Medium, Alpha Medium (Mediatech, Manassas, Va.) supplemented with 10% fetal bovine serum (Sigma-Aldrich, Saint Louis, Mo.) and GlutaGro (Mediatech, Manassas, Va.), referred to henceforth as cell culture medium. […]
# A single-cell suspension of HEK-293 cells stably transfected with the appropriate ion channels were plated into TC-treated 35 mm polystyrene dishes at ˜15% confluence and incubated overnight in a 5% CO2 cell culture incubator at 37° C. […] Whole cell currents were recorded in 20K extracellular solution at −70 mV using a Pico 1 amplifier (Tecella, Foothill Ranch, Calif.) controlled by WINWCP 4.X (University of Strathclyde, Glasgow, Scotland, UK). […] One day after transfection, cells were plate into 35 mm polystyrene dishes, incubated and recorded as described above. […]
# as §1
smiles,measurement,setting,value
"Cc1cc(NC(=O)Nc2ccc(F)c(F)c2)n(-c2ccccc2)n1 [VU0456810, 1-(3,4-difluorophenyl)-3-(3-methyl-1-phenyl-1H-pyrazol-5-yl)urea]",Potency,[1],failed to show any activation or potentiation; also recorded: Inactive
same,time to 90% of maximal current amplitude after application,"GIRK1/2; 10 μM, local superfusion",approximately 2 seconds
same,washout time,GIRK1/2; after application was terminated,nearly a minute
same,EC50,"GIRK1/2; cell line GIRK1-2, average ± SEM",584 ± 175 nM
